Source: US20140135359A1, “METHODS OF DESIGNING, PREPARING, AND USING NOVEL PROTONOPHORES” (priority 2012, published 2014)

Key:
[1] = tested on: isolated rat liver mitochondria; assay: Uncoupling activity: increase in basal (state 4) oxygen consumption by oxygraphy; format: biochemical; settings: for Measured Uncoupling Activity (% uncoupling ± SEM @ 100 μM): Suppl. Table 1, 2-3 mitochondrial preparations; for Uncoupling (%): increase in basal (state 4) oxygen consumption as % of average ADP-stimulated (state 3) rate in vehicle-treated mitochondria; for Measured Uncoupling (% uncoupling ± SEM @ 100 μM): Table 1A, relative to ADP-stimulated respiration = 100%
[2] = tested on: isolated rat liver mitochondria; assay: Residual functional capacity / inhibitory effect on ADP-stimulated (state 3) oxygen consumption; format: biochemical; settings: for Residual capacity (%): functional capacity (state 3 minus state 4 rate) as % of vehicle-treated mitochondria

Compound | Measured Uncoupling Activity (% uncoupling ± SEM @ 100 μM) [1] [% uncoupling] | Uncoupling (%) ([1]; test conc. 100 μM) | inhibition of ADP-stimulated oxygen consumption ([2]; screening at 100 μM) | Inhibitory effect (%) ([2]; test conc. 100 μM) | Residual capacity (%) ([2]; test conc. 100 μM) | Uncoupling (%) ([1]; test conc. 25 μM) | Inhibitory effect (%) ([2]; test conc. 25 μM) | Residual capacity (%) ([2]; test conc. 25 μM) | uncoupling activity ([1]; 25 μM) | Measured Uncoupling (% uncoupling ± SEM @ 100 μM) [1] [% uncoupling] | uncoupling potency compared with 2,4-dinitrophenol ([1]; dose-escalation) | slope of the linear portion of the concentration-to-activity relationship ([1]; dose-escalation, logarithmic scales) | uncoupling activity ([1]; 50 μM in 0.1% DMSO (FIG. 19)) | inhibitory effect on oxidative phosphorylation ([2]; 50 μM (FIG. 19))
COc1cc(C2Oc3cc([C@H]4Oc5cc(O)cc(O)c5C(=O)[C@@H]4O)ccc3OC2CO)ccc1O (stereo partly shown) [silibinin (A and B), silibinin] | 5 ± 1 | 5 ± 1 | inhibitory activity | 73 | 22 ± 5 |  |  |  |  |  |  |  |  | 
COc1ccc(-c2cc(=O)c3c(O)cc(O)c(-c4cc(-c5cc(=O)c6c(O)cc(OC)cc6o5)ccc4OC)c3o2)cc1 [sciadopitysin] | −1 ± 0 | −1 ± 0 |  | 2 | 98 ± 0 |  |  |  |  |  |  |  |  | 
O=c1c(O)c(-c2cc(O)c(O)c(O)c2)oc2cc(O)cc(O)c12 [myricetin] | 11 ± 0 | 11 ± 0 |  | 43 | 46 ± 3 | 6 ± 3 | 28 | 66 ± 2 |  |  |  |  |  | 
O=c1c(O)c(-c2ccccc2)oc2cc(O)cc(O)c12 [galangin] | 95 ± 9 | 95 ± 9 |  | 5 | 0 ± 0 | 102 ± 3 | 0 | 2 ± 2 | complete uncoupling | 95 ± 9 | potency on the order of that of 2,4-dinitrophenol | 1.39 |  | 
Oc1cccc(O)c1O [pyrogallol] | 1 ± 1 | 1 ± 1 |  | 16 | 83 ± 17 |  |  |  |  |  |  |  |  | 
Oc1ccc(C=Cc2cc(O)cc(O)c2)cc1 [resveratrol (trans)] |  | 2 ± 0 |  | 62 | 36 ± 4 | 0 ± 0 | 29 | 71 ± 9 |  |  |  |  |  | 
COc1cc(/C=C/C(=O)c2ccc(O)cc2O)ccc1O [homobutein] | 56 ± 5 | 56 ± 5 |  | 22 | 22 ± 3 | 6 ± 0 | 15 | 79 ± 7 |  | 56 ± 5 |  |  | partial uncoupling | inhibition of ADP-stimulated consumption
Oc1cc(O)c2c(c1)OC(c1ccc(O)c(O)c1)C(O)C2 (single isomer, unassigned; (+)) [(+) catechin, catechin] | −2 ± 0 | −2 ± 0 |  | 2 | 98 ± 5 |  |  |  |  |  |  |  |  | 
O=C(O)c1cc(O)c(O)c(O)c1 [gallic acid] | −2 ± 1 | −2 ± 1 |  | 2 | 98 ± 1 |  |  |  |  |  |  |  |  | 
Oc1cccc(O)c1 [resorcinol] | 0 ± 0 | 0 ± 0 |  | 9 | 91 ± 3 |  |  |  |  |  |  |  |  | 
O=c1c(-c2ccc(O)cc2)coc2cc(O)cc(O)c12 [genistein] | 74 ± 4 | 74 ± 4 |  | 6 | 20 ± 0 | 8 ± 0 | 15 | 77 ± 1 |  | 74 ± 4 |  |  |  | 
